The values that follow come from patent US12686668B2, “Leukotriene synthesis inhibitors” (Naegis Pharmaceuticals Inc., priority 2019, dated 2026).

Series [1] has as its system endogenous leukotriene production. The conditions noted are these: estimated; cited from earlier work.
Series [2] has as its system LTC4 production in MC/9 cells. Put plainly: MC/9 HPLC assay, inhibition of LTC4 production. The class given is cell-based. The note with it: Mus musculus; for inhibition at 3 µM: MC9, 3 μM, A23187 stimulated; for inhibition at 1 µM: MC9, Table 2 column 3, no concentration in head (1 μM according to b732), read-out: % Inhibition LTC4. The procedure, abridged:
(§1)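 MC/9 cells (3×10^6 in HBSS) pre-incubated 30 min with compound, then stimulated 20 min at room temperature with 1 μM A23187. After methanol quench and C18 solid-phase extraction, LTB4 and LTC4 quantified by HPLC against reference standards; inhibition relative to control samples.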

Series [3] in a line: Solubilized concentration of compound in eye drop formulation (HPLC). Type of series: physicochemical. The conditions noted are these: eye drop formulation: 20% hydroxypropyl β-cyclodextrin, 0.5% HPMC, 1.6 mM EDTA in PBS. How it is done: (§2) Eye drops were prepared by adding compounds at a theoretical concentration of 10 mg/mL to a 2 mL microcentrifuge tube before adding a stir bar and the selected formulation that consisted of (w/v) hydroxypropyl β-cyclodextrin (Trappsol) (20%), hydroxyl propyl methylcellulose (0.5%) and EDTA (1.6 mM) in phosphate buffered saline. Tubes containing compound in eye drop formulation were heated to 60-65° C. and stirred at least 4 hours to overnight. The tubes were removed from the heat bath and centrifuged at 10,000 ref for 5 minutes to clear the solution of any residual drug not in solution. The supernatant was removed from the tubes and one 10 μL sample was removed for HPLC analysis of solubilized by HPLC using an ACE C18 column (4.5 mm×150 mm, 5 m), eluted with acetonitrile/methanol/water mixture with H3PO4, pH 3.5 (50:30:20) with a flow rate of 2.5 mL/min. The solubilized concentration of each compound was calculated by interpolation from a standard curve based on reference standards solubilized in methanol when the assay was validated.
In Table 6, the data from distribution studies performed in Lewis rats show the concentration of each compound present in the retina 0.5 hr after the administration of a 10 μL drop of each topical formation is provided. Compounds were paired and individual formulations mixed at a ratio to make a mixture that contained ~2.5 mg/mL of each compound.

Series [4] in a line: Rat ocular distribution model, retina after topical drop. The class given is in vivo. The conditions noted are these: Lewis rats, 10 μL topical drop. How it is done:
as §2
Compounds were applied as a single 10 μL drop to rats and the aqueous humor, and the posterior segment of the eye (vitreous body and retina) were collected from each eye at the time point assigned after the eye was irrigated to remove any residual formulation present. Tissues were collected in pre-weighed collection tubes and the tissue weight was determined for each sample. An internal standard (IS) mixture containing a reference compound at a ratio of 1 μL to 4 mg tissue was added to samples, mixed and then diluted×4.25 in acetonitrile:methanol (9:1). Aqueous humour samples were vortex mixed for 10 s. The vitreous body & retina were vortex mixed 2 times each for 10 s, and further mixed for 6 min on a tabletop shaker at 750 rpm followed by final vortex mixing (10 s). All samples were centrifuged to pellet any particulate matter and the supernatant was transferred to LC vials. A 10 μL sample was then applied to the HPLC during LC/MS/MS analysis. A calibration curve for compounds (0.588-176.471 ng/mL) was prepared in rat plasma to estimate concentrations of compounds in each of the matrices analyzed using the area under curve (AUC) normalized to internal standard AUC for determining response. The assumption was made that 1 mg tissue is equivalent to 1 μL plasma. Concentrations measured in each tissue were then normalized to the amount of drug applied to account for differences in solubilized drug in each formulation. The average concentration and the standard deviation was determined based on “n”=number of eyes assessed, rather than the number of animals. […]

In series [5] the test system is LTB4 production in MC/9 cells. Description: MC/9 HPLC assay, inhibition of LTB4 production. Type of series: cell-based. The note with it: Mus musculus, MC9, Table 2 column 4, no concentration in head (1 μM according to b732), read-out: % Inhibition LTB4. The procedure, abridged:
as §1

The test system of series [6] is AA-induced ear edema. Description: Arachidonic acid (AA) induced mouse ear edema model. Type of series: in vivo, CD-1 mice. The note with it: 4 hrs and 1 hr before AA 2 mg/ear, mice; for % Inhibition AA-Induced ear edema (1 mg/ear): topical 1 mg/ear. How it is done:
One group serves as a control and receives 20 μL of vehicle applied to the pinna of each ear (10 μL to the inside and 10 μL to the outside of the pinna). One or more additional groups serve as test groups. The test compound was applied to the pinna of one ear of the mouse in a 20 μL volume (10 μL to the inside and 10 μL to the outside of the pinna). Test compound or control vehicle (acetone/1% DMSO) was applied topically to the right ear 4 and 1 hour before the application of 2 mg/ear AA as a stimulus to both the inner and outer surfaces of CD-1 mice. The left ears received vehicle (acetone/1% DMSO) alone. The animal was lightly anesthetized again using isofluorane to enable application of the stimulus. For the control group, arachidonic acid (2 mg/ear) was applied as the stimulus to the pinna of one ear only, in a total volume of 20 μL of acetone (10 μL applied to the inside and 10 μL to the outside of the pinna). The other ear received 20 μL of acetone. This served to determine the increase in ear weight due to arachidonic acid in the absence of test compounds. For the test groups, arachidonic acid (2 mg/ear) was applied as the stimulus to the pinna of each ear, in a total volume of 20 μL of acetone (10 μL applied to the inside and 10 μL to the outside of the pinna). The animal was allowed to recover after application of the stimulus in each case. After 60 minutes the animal was euthanized and a standard biopsy sample was taken from each ear using a 6 mm skin biopsy punch (Acuderm). Ear edema was determined by the increase in weight of the tissue due to accumulation of fluid as a result of plasma extravasation. The ears were weighed separately using a balance suitable to record 0.1 mg. For the control group, the difference in ear weights was determined by subtracting the weight of the unstimulated ear from the stimulated ear, and this was a measure of the increase in ear weight due to edema. The percentage increase in ear weight was determined by dividing the increase in stimulated ear weight by the unstimulated ear weight and multiplying by 100. For the test groups, the difference in ear weights was determined by subtracting the weight of the untreated ear from the weight of the ear treated with test compound. The percent inhibition of the increase in ear weight for ears treated with the test compound was estimated by first subtracting the mean ear weight of the untreated controls from each tissue to determine the increase in tissue weight due to application of the arachidonic acid. The percent inhibition=1−(test drug stimulated ear (mg)/control stimulated ear (mg))×100. In Table 5, the data from inhibition of AA-induced ear edema in mice by topical application of compounds is provided. Compounds (0.3 or 1 mg/ear) were applied topically to the ear 4 hrs and 1 hr prior to application of arachidonic acid (AA; 2 mg/ear).

In series [7] the test system is LTB4 production in porcine or human whole blood. Put plainly: Whole blood HPLC assay, inhibition of LTB4 production. Type of series: cell-based. The note with it: 5 point curve, porcine or human whole blood (not specified). The gist of the method:
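Porcine or human whole blood was pre-incubated 30 min with compound, then stimulated 20 min at room temperature with 20 μM A23187 (porcine blood also received 20 μM arachidonic acid). Plasma LTB4 was extracted on C18 and quantified by HPLC against reference standards. IC50 from a 5-point curve, with inhibition relative to controls.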

The target in series [8] is T1, recombinant human leukotriene A4 hydrolase enzyme (Homo sapiens, UniProt P09960).
T1 construct: purchased Cayman Chemical 10007817
T1 sequence (P09960 1-611): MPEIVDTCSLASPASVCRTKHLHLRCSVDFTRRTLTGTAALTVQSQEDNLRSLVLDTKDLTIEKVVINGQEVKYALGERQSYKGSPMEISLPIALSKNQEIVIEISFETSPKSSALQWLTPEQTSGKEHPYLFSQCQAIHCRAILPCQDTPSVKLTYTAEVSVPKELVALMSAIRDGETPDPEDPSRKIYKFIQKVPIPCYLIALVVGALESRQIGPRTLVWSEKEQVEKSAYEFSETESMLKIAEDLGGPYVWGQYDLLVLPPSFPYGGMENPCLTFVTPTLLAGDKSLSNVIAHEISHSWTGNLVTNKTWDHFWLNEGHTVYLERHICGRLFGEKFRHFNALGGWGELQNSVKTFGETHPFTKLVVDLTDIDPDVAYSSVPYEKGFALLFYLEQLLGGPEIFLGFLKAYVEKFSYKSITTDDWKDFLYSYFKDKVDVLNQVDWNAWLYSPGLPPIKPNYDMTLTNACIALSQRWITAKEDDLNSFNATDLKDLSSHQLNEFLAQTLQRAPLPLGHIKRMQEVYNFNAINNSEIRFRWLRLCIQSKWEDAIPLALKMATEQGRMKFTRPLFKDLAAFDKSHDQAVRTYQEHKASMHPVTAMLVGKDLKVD
Description: Amino-peptidase assay, alanine-4-nitroanalide. The class given is biochemical. The note with it: negative values = augmented peptidase activity, read-out: % Inhibition aminopeptidase-Alanine-4-nitroanalide activity of LTA4H (3 μM). The procedure, abridged: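 Compounds pre-incubated in the dark with recombinant human LTA4H (0.5 μg) in 50 mM Tris-HCl, 100 mM KCl; reaction started with alanine-4-nitroanilide (6 mM solution). Aminopeptidase rate followed as A405 from 4-nitroaniline, referenced to a standard; inhibition calculated versus controls, with negative values indicating augmented activity.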

Structures are written as SMILES. A value given as a limit tells only on which side of the number the result lay.

For the molecule `CC(c1cc2ccccc2s1)N(O)C(N)=O` (stereo not drawn) [Zileuton], in series [1], the “Inhibition of endogenous leukotriene production” value was 26-86%.
For the molecule `CCC(O)(CCc1ccc(Oc2nc3c(SC)cccc3s2)cc1)C(F)(F)F` (stereo not drawn) [Compound 195, 1-(4-{[4-(methylsulfanyl)-1,3-benzothiazol-2-yl]oxy}phenyl)-3-(trifluoromethyl)pentan-3-ol], the inhibition (as a rule, the relative decrease from the control value, in per cent) at 3 µM in series [2] is over 90%. In series [3], this molecule came in with a Concentration of compound in formulation of 3640 µg/mL. The “Concentration of compound in retina 0.5 hr after administration per mg compound applied (Avg ± SD) n = 2” value in series [4] is listed as 3343 ± 2.4 ng/mL per mg compound applied.
On to `COc1cc(CCC(C)(O)C(F)(F)F)ccc1Oc1nc2c(SC)cccc2s1` (stereo not drawn) [Compound 119, 1,1,1-trifluoro-4-(3-methoxy-4-{[4-(methylsulfanyl)-1,3-benzothiazol-2-yl]oxy}phenyl)-2-methylbutan-2-ol], for which the inhibition at 1 µM in series [5] is over 90%. Moreover, the “% Inhibition AA-Induced ear edema (0.3 mg/ear)” value in series [6] (topical 0.3 mg/ear) is 30-50%. In addition, in series [6], the “% Inhibition AA-Induced ear edema (1 mg/ear)” value is 50-70%. Besides, in series [2], the inhibition at 3 µM is over 90% and the inhibition at 1 µM is over 90%. Moreover, the IC50 – broadly, the concentration that inhibits the measured activity by half – in series [7] was 1 to 10 µM.
As to `CCC(CCc1ccc(Oc2nc3ccccc3s2)cc1)N1CCCC1` (stereo not drawn) [Compound 158, 2-{4-[3-(pyrrolidin-1-yl)pentyl]phenoxy}-1,3-benzothiazole], the inhibition at 1 µM was over 90% in series [5] and 10 to 30% in series [2]. In series [6], the “% Inhibition AA-Induced ear edema (1 mg/ear)” value is given as 10-30%. The values for the inhibition at 3 µM in series [2] and in series [8] were under 10% and 50 to 75%, respectively. The IC50 in series [7] lay in the range of 0.1 to 1 µM.
As for `CCC(C)(O)CCc1ccc(Oc2nc3c(SC)cccc3s2)c(OC)c1` (stereo not drawn) [Compound 191, 1-(3-methoxy-4-{[4-(methylsulfanyl)-1,3-benzothiazol-2-yl]oxy}phenyl)pentan-3-methyl-3-ol], the inhibition at 3 µM in series [2] is over 90%. The Concentration of compound in formulation in series [3] came out at 1650 µg/mL. In addition, the “Concentration of compound in retina 0.5 hr after administration per mg compound applied (Avg ± SD) n = 2” value in series [4] was 4872 ± 1672 ng/mL per mg compound applied.
For `CCC(O)CCc1ccc(Oc2nc3c(SC)cccc3s2)c(OC)c1` (stereo not drawn) [Compound 193, 1-(3-methoxy-4-{[4-(methylsulfanyl)-1,3-benzothiazol-2-yl]oxy}phenyl)pentan-3-ol], the inhibition at 1 µM in series [5] and in series [2] was over 90% each time. In series [2], the inhibition at 3 µM fell in the range of 70 to 90%. The Concentration of compound in formulation in series [3] stood at 2530 µg/mL. For the same molecule, in series [4], the “Concentration of compound in retina 0.5 hr after administration per mg compound applied (Avg ± SD) n = 2” value was 15690 ± 9863 ng/mL per mg compound applied.
